Where two headings read alike, the source gives them in different places.
What was measured:
[1] = target: EGFR del19/T790M/C797S (Homo sapiens, UniProt P00533, C797S/DEL746-750/T790M); experiment: Biochemical EGFR kinase assay (Lance Ultra TR-FRET), triple mutant del19/T790M/C797S
Procedure, shortened: (§1)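 Kinase activity is measured by TR-FRET phosphopeptide detection. Compounds span 0.003 μM to 10 μM; the 1 h reaction at room temperature is quenched with EDTA, then labelled antibody (2 nM) is incubated 60 min before reading.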

[2] = target: EGFR L858R/T790M/C797S (Homo sapiens, UniProt P00533, C797S/L858R/T790M); experiment: Biochemical EGFR kinase assay (Lance Ultra TR-FRET), triple mutant L858R/T790M/C797S
Procedure, shortened: as §1

[3] = target: EGFR del19/C797S (Homo sapiens, UniProt P00533, C797S/DEL746-750); experiment: Biochemical EGFR kinase assay (Lance Ultra TR-FRET), double mutant del19/C797S
Procedure, shortened: as §1

[4] = target: EGFR L858R/C797S (Homo sapiens, UniProt P00533, C797S/L858R); experiment: Biochemical EGFR kinase assay (Lance Ultra TR-FRET), double mutant L858R/C797S
Procedure, shortened: as §1

[5] = target: EGFR wildtype (WT) (Homo sapiens, UniProt P00533); experiment: Biochemical EGFR kinase assay (Lance Ultra TR-FRET), wildtype
Procedure, shortened: as §1

[6] = IC50 del19/T790M/C797S (nM) 100 μM ATP, 100 μM ATP
[7] = Km ATP, read-out: IC50 del19/T790M/C797S (nM) Km ATP
[8] = IC50 L858R/T790M/C797S (nM) 100 μM ATP, 100 μM ATP
[9] = Km ATP, read-out: IC50 L858R/T790M/C797S (nM) Km ATP
[10] = IC50 del19/C797S (nM) 100 μM ATP, 100 μM ATP
[11] = Km ATP, read-out: IC50 del19/C797S (nM) Km ATP
[12] = IC50 L858R/C797S (nM) 100 μM ATP, 100 μM ATP
[13] = Km ATP, read-out: IC50 L858R/C797S (nM) Km ATP
[14] = IC50 WT (nM) 100 μM ATP, 100 μM ATP
[15] = Km ATP, read-out: IC50 WT (nM) Km ATP

Chain of EGFR del19/C797S (P00533 with tags, fused parts or gaps DEL746-750/C797S): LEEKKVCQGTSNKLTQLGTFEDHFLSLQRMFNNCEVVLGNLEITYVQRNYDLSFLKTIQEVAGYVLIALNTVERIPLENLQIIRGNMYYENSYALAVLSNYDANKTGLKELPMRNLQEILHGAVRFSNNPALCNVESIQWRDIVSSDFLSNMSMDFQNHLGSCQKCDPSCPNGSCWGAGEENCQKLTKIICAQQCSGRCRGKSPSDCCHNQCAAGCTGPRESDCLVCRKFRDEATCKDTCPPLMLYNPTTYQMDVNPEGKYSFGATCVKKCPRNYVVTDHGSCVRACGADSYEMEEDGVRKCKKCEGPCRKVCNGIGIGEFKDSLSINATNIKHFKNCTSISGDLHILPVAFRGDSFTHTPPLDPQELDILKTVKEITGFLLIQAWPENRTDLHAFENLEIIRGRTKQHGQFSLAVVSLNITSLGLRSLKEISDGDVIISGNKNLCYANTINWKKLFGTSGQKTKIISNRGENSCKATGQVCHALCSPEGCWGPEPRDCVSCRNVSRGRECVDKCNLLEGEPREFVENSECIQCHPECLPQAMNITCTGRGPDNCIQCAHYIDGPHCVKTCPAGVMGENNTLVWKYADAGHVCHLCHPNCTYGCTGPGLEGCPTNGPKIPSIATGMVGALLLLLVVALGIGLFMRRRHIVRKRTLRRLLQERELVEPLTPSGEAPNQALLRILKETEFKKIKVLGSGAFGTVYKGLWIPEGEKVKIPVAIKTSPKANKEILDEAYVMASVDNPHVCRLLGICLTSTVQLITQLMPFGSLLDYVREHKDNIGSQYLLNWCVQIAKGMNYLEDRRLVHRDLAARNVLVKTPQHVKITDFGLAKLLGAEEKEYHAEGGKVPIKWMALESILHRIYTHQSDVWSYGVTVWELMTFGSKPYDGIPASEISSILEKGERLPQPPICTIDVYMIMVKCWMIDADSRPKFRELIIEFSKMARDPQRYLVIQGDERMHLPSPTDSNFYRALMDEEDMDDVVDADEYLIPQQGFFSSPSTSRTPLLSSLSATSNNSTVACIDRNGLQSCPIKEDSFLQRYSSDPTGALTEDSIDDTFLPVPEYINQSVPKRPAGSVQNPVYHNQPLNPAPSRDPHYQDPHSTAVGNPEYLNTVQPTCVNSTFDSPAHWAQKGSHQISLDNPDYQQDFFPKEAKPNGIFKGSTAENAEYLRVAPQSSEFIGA
Chain of EGFR del19/T790M/C797S (P00533 with tags, fused parts or gaps DEL746-750/T790M/C797S): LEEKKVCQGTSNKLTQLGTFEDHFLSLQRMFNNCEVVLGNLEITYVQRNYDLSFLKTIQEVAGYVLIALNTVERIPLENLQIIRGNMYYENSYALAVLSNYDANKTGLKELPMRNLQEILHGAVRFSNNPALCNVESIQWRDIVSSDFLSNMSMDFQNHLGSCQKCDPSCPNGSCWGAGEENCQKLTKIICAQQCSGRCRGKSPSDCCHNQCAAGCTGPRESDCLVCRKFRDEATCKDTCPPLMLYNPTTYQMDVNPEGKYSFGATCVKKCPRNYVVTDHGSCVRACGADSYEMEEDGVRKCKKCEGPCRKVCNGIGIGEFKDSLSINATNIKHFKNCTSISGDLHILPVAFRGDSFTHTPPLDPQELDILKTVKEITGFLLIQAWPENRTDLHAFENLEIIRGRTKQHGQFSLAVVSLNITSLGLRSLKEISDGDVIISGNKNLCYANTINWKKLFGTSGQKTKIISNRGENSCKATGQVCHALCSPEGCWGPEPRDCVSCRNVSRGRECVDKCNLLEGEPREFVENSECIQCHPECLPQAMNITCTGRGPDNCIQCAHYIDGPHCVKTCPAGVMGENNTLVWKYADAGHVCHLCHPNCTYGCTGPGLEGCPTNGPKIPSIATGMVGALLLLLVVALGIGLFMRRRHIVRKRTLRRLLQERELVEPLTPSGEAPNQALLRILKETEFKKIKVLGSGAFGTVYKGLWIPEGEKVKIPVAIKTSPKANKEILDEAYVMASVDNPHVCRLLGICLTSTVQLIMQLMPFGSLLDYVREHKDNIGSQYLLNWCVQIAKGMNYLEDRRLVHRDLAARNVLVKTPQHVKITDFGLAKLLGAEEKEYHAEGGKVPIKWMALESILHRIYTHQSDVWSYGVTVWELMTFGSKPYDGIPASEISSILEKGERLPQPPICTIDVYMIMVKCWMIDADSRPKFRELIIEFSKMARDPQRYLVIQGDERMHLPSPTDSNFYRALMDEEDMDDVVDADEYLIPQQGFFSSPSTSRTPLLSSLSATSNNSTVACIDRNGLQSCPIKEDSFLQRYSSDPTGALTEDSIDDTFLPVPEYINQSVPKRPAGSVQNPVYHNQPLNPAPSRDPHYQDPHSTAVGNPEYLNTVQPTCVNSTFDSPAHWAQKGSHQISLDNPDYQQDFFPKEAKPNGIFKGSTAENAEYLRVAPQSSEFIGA
Chain of EGFR wildtype (WT) (P00533 25-1210): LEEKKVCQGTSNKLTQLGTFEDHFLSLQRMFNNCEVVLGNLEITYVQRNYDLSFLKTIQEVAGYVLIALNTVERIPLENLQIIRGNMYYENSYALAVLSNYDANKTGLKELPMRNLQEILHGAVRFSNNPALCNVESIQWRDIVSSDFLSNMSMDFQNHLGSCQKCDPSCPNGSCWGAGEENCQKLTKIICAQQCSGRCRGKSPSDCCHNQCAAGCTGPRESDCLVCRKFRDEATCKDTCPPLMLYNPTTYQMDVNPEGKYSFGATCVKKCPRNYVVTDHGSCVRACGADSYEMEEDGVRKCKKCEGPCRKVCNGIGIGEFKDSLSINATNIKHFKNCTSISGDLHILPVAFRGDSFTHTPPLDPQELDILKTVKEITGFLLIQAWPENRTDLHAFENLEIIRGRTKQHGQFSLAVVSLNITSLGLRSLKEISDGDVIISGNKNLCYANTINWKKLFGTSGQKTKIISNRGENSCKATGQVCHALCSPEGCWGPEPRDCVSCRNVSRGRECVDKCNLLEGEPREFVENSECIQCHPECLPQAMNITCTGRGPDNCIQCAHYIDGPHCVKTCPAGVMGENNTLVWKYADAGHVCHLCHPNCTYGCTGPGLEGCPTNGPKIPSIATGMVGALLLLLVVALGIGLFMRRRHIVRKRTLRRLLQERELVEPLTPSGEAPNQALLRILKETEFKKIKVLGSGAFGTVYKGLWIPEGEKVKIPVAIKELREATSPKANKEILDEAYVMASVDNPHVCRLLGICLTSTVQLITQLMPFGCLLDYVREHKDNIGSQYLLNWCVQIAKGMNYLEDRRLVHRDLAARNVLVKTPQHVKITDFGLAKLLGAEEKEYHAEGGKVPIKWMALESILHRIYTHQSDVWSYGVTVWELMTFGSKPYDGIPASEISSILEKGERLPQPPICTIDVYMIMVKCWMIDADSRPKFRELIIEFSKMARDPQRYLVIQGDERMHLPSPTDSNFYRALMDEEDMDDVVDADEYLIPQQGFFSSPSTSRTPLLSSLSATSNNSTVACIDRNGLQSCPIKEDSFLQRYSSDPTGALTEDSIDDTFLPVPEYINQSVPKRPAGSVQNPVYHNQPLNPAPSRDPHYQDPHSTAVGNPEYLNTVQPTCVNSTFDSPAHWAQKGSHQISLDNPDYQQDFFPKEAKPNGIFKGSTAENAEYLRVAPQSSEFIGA
Chain of EGFR L858R/T790M/C797S (P00533 25-1210 T790M/C797S/L858R): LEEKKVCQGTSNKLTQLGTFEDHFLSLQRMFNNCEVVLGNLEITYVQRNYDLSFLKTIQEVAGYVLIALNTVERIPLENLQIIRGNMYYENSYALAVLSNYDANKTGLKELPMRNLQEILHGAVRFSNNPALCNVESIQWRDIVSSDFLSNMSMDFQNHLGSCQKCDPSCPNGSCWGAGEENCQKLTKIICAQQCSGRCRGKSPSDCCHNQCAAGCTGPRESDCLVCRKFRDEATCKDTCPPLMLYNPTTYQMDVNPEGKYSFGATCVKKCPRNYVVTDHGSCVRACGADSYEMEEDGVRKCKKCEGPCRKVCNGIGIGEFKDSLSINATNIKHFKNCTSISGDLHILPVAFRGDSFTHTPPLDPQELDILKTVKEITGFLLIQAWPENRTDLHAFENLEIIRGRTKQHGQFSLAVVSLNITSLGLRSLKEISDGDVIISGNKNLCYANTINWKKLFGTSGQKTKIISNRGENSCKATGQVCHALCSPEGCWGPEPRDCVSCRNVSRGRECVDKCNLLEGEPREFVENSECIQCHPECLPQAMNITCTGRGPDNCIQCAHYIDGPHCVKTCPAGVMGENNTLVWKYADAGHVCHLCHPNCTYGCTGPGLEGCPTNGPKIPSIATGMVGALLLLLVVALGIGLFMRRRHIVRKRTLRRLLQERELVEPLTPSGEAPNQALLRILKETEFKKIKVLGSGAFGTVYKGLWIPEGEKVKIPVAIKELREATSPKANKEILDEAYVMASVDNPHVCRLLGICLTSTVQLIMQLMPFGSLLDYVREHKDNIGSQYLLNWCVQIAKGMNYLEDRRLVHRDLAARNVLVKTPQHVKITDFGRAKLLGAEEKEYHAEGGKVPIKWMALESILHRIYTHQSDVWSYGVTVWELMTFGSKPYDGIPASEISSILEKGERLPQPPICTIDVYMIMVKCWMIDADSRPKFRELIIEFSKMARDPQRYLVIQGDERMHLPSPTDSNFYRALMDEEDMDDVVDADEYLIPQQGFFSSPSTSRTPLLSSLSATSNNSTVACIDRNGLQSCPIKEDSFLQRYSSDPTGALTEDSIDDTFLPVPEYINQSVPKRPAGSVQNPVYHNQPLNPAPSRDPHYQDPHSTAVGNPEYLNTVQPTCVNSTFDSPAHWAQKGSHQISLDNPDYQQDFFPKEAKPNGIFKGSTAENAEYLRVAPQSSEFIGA

Row | Structure (SMILES) | IC50 [1, 6] [nM] | IC50 [1, 7] [nM] | IC50 [2, 8] [nM] | IC50 [2, 9] [nM] | IC50 [3, 10] [nM] | IC50 [3, 11] [nM] | IC50 [4, 12] [nM] | IC50 [4, 13] [nM] | IC50 [5, 14] [nM] | IC50 [5, 15] [nM] | IC50 ([1]; Km ATP, read-out: IC50 del19/T790M/C797S, Km ATP) [nM] | IC50 ([2]; Km ATP, read-out: IC50 L858R/T790M/C797S, Km ATP) [nM] | IC50 ([3]; Km ATP, read-out: IC50 del19/C797S, Km ATP) [nM] | IC50 ([4]; Km ATP, read-out: IC50 L858R/C797S, Km ATP) [nM] | IC50 ([5]; Km ATP, read-out: IC50 WT, Km ATP) [nM]
1 | CCS(=O)(=O)n1ccc(-c2nccc(Nc3cc(N[C@H]4CC[C@@](C)(O)CC4)c(-c4ccn(C(F)F)n4)cn3)n2)n1 [Example 309, (1s,4s)-4-((5-(1-(Difluoromethyl)-1H-pyrazol-3-yl)-2-((2-(1-(ethylsulfonyl)-1H-pyrazol-3-yl)pyrimidin-4-yl)amino)pyridin-4-yl)amino)-1-methylcyclohexan-1-ol] | 3.8 | 4.4 | 29.9 | 4.9 | 343 | 460 | > 10000 | 42.9 | > 10000 | 5.5 |  |  |  |  | 
2 | CN[C@H]1CC[C@@H](Nc2cc(Nc3ccnc(-c4cnn(S(=O)(=O)C5CC5)c4)n3)ncc2-c2ccco2)CC1 [Example 87, N^2-(2-(1-(Cyclopropylsulfonyl)-1H-pyrazol-4-yl)pyrimidin-4-yl)-5-(furan-2-yl)-N^4-((1s,4s)-4-(methylamino)cyclohexyl)pyridine-2,4-diamine] | 0.2 |  | 0.7 |  | 6.9 |  | 31.4 |  | > 10000 |  |  |  |  |  | 
3 | O=S(=O)(C1CC1)n1cc(-c2nccc(Nc3cc(N[C@H]4CCCNCC4)c(-c4ccn(C(F)F)n4)cn3)n2)cn1 [Example 17, (S)-N^4-(Azepan-4-yl)-N^2-(2-(1-(cyclopropylsulfonyl)-1H-pyrazol-4-yl)pyrimidin-4-yl)-5-(1-(difluoromethyl)-1H-pyrazol-3-yl)pyridine-2,4-diamine] | 1 |  | 2.6 |  | 19.1 |  | 691 |  | > 10000 |  |  |  |  |  | 
4 | CCOC(=O)c1ccn(-c2cnc(Nc3ccnc(-c4cnn(S(=O)(=O)C5CC5)c4)n3)cc2N[C@H]2CC[C@@](C)(O)CC2)n1 [Example 102, Ethyl 1-(6-((2-(1-(cyclopropylsulfonyl)-1H-pyrazol-4-yl)pyrimidin-4-yl)amino)-4-(((1s,4s)-4-hydroxy-4-methylcyclohexyl)amino)pyridin-3-yl)-1H-pyrazole-3-carboxylate] | 0.4 | 0.5 | 0.6 | 0.3 | 10.6 | 6.3 | 123 | 4.4 | > 10000 | 183 |  |  |  |  | 
5 | Cc1nn(CC(F)(F)F)cc1-c1nccc(Nc2cc(N[C@H]3CC[C@@](C)(O)CC3)c(-c3ccn(CC(F)F)n3)cn2)n1 [Example 335, (1s,4s)-4-((5-(1-(2,2-Difluoroethyl)-1H-pyrazol-3-yl)-2-((2-(3-methyl-1-(2,2,2-trifluoroethyl)-1H-pyrazol-4-yl)pyrimidin-4-yl)amino)pyridin-4-yl)amino)-1-methylcyclohexan-1-ol] |  |  |  |  |  |  |  |  |  |  | 1.6 | 0.7 | 7.9 | 4.6 | 98.8
6 | CN[C@H]1CC[C@@H](Oc2cc(Nc3ccnc(-c4cnn(S(=O)(=O)C5CC5)c4)n3)ncc2-c2cnn(C(F)F)c2)CC1 [Example 69, 2-(1-(Cyclopropylsulfonyl)-1H-pyrazol-4-yl)-N-(5-(1-(difluoromethyl)-1H-pyrazol-4-yl)-4-(((1s,4s)-4-(methylamino)cyclohexyl)oxy)pyridin-2-yl)pyrimidin-4-amine] | 0.5 | 0.3 | 1.9 | 0.2 | 18.7 | 11.2 | 257 | 14.7 | > 10000 | 114 |  |  |  |  | 
7 | CS(=O)(=O)N1CCC(c2nccc(Nc3cc(N[C@H]4CC[C@@](C)(O)CC4)c(-c4ccn(C(F)F)n4)cn3)n2)CC1 [Example 158, (1s,4s)-4-((5-(1-(Difluoromethyl)-1H-pyrazol-3-yl)-2-((2-(1-(methylsulfonyl)piperidin-4-yl)pyrimidin-4-yl)amino)pyridin-4-yl)amino)-1-methylcyclohexan-1-ol] |  | 110 |  | 9.4 |  | 6330 |  | 450 |  | 635 |  |  |  |  | 
8 | O=S(=O)(C1CC1)n1cc(-c2nccc(Nc3cc(N[C@H]4CC[C@@H](F)CC4)c(-c4ccn(CC(F)(F)F)n4)cn3)n2)cn1 [Example 305, N^2-(2-(1-(Cyclopropylsulfonyl)-1H-pyrazol-4-yl)pyrimidin-4-yl)-N^4-((1s,4s)-4-fluorocyclohexyl)-5-(1-(2,2,2-trifluoroethyl)-1H-pyrazol-3-yl)pyridine-2,4-diamine] |  | 8 |  | 5.3 |  | 67.7 |  | 12 |  | 853 |  |  |  |  | 
9 | Cc1nn(C)c(F)c1-c1nccc(Nc2cc(N[C@H]3CC[C@@](C)(O)CC3)c(-c3ccn(C(F)F)n3)cn2)n1 [Example 319, (1s,4s)-4-((5-(1-(Difluoromethyl)-1H-pyrazol-3-yl)-2-((2-(5-fluoro-1,3-dimethyl-1H-pyrazol-4-yl)pyrimidin-4-yl)amino)pyridin-4-yl)amino)-1-methylcyclohexan-1-ol] |  | 0.4 |  | 0.3 |  | 47.3 |  | 16.9 |  | 184 |  |  |  |  | 
10 | O=S(=O)(C1CC1)n1cc(-c2nccc(Nc3cc(N[C@@H]4CCC[C@H](O)C4)c(-c4csc(C(F)(F)F)n4)cn3)n2)cn1 [Example 96, (1S,3R)-3-((2-((2-(1-(Cyclopropylsulfonyl)-1H-pyrazol-4-yl)pyrimidin-4-yl)amino)-5-(2-(trifluoromethyl)thiazol-4-yl)pyridin-4-yl)amino)cyclohexan-1-ol] | 3.5 | 2.7 | 6.2 | 2 | 159 | 89.1 | 690 | 22.7 | > 10000 | 418 |  |  |  |  | 
11 | COCCn1cc(-c2nccc(Nc3cc(N[C@H]4CC[C@@](C)(O)CC4)c(-c4ccn(C(F)F)n4)cn3)n2)cn1 [Example 138, (1s,4s)-4-((5-(1-(Difluoromethyl)-1H-pyrazol-3-yl)-2-((2-(1-(2-methoxyethyl)-1H-pyrazol-4-yl)pyrimidin-4-yl)amino)pyridin-4-yl)amino)-1-methylcyclohexan-1-ol] | 0.4 | 0.2 | 0.8 | 0.1 | 47.6 | 45.1 | 295 | 26.9 | > 10000 | 77.7 |  |  |  |  | 
12 | Cn1ccc(-c2cnc(Nc3ccnc(-c4cnn(S(=O)(=O)C5CC5)c4)n3)cc2N[C@H]2CC[C@@H](F)CC2)n1 [Example 174, N^2-(2-(1-(Cyclopropylsulfonyl)-1H-pyrazol-4-yl)pyrimidin-4-yl)-N^4-((1s,4s)-4-fluorocyclohexyl)-5-(1-methyl-1H-pyrazol-3-yl)pyridine-2,4-diamine] |  | 1.4 |  | 0.8 |  | 2.4 |  | 0.5 |  | 13.2 |  |  |  |  | 
13 | O=S(=O)(C1CC1)n1cc(-c2nccc(Nc3cc(N[C@@H]4CC[C@@H](O)C4)c(-c4ccn(C(F)F)n4)cn3)n2)cn1 [Example 12, (1R,3R)-3-((2-((2-(1-(Cyclopropylsulfonyl)-1H-pyrazol-4-yl)pyrimidin-4-yl)amino)-5-(1-(difluoromethyl)-1H-pyrazol-3-yl)pyridin-4-yl)amino)cyclopentan-1-ol] | 1.2 |  | 2.8 |  | 30 |  | 46.9 |  | > 10000 |  |  |  |  |  | 
